Here are results for one compound from ChEMBL document CHEMBL6109147, “Discovery of Potent STING Inhibitors Bearing a Difluorobenzodioxol Structural Motif as Potent Anti-Inflammatory Agents” (J Med Chem, 2025).

Each structure is given as a SMILES string. The source made the active and inactive calls. The rule behind the calls is not given here.

Data set [1] has as its target Stimulator of interferon genes protein (Homo sapiens) (UniProt Q86WV6). Nature of the data set: Inhibition of STING downstream signalling in human THP1-Dual cells assessed as inhibition of cGAMP induced IP-10 mRNA expression at 0.3 to 3 uM pre-treated for 1 hr followed by stimulated with cGAMP measured after 4 hrs by real-time PCR analysis. In kind it is cell-based. The conditions noted are these: dose 0.3-3 µM, time 5.0 hrs. On the technique in general: In qPCR the cycle at which signal appears reflects the starting amount.

Data set [2] shares this target. Kind of data set: Inhibition of STING downstream signalling in human THP1-Dual cells assessed as inhibition of HT-DNA induced TNF-alpha mRNA expression at 0.3 to 3 uM pre-treated for 1 hr followed by stimulated with HT-DNA measured after 4 hrs by real-time PCR analysis. The data set is classed as cell-based. The conditions noted are these: dose 0.3-3 µM, time 5.0 hrs.

For data set [3] the target is unchanged. Nature of the data set: Inhibition of STING downstream signalling in human THP1-Dual cells assessed as inhibition of cGAMP induced IP-10 secretion at 0.3 to 3 uM pre-treated for 1 hr followed by stimulated with cGAMP measured after 24 hrs by ELISA. In kind it is cell-based. The conditions noted are these: dose 0.3-3 µM, time 25.0 hrs. A general note: In an ELISA, binding on a coated surface is turned into a signal by an enzyme label.

Another data set deals with Mus musculus. Nature of the data set: Anti-inflammatory activity in TREX1 D18N mouse model assessed as reduction in Ifn-beta mRNA expression in heart at 10 mg/kg, ip measured after 2 weeks. In kind it is functional, organism-based.
For data set [4], the system named is Stimulator of interferon genes protein (Homo sapiens), Q86WV6 [UNDEFINED MUTATION]. Kind of data set: Inhibition of human STING expressed in 293T-Dual-hSTING-AQ cells assessed as reduction in cGAMP-induced secreted luciferase reporter of interferon stimulated gene (ISG) measured after 24 hrs incubation. The data set is classed as cell-based. A general note: Reporter assays use an easily measured gene product as a stand-in for the process of interest.

The nature of data set [5]: AUC (0 to infinity) in Sprague-Dawley rat at 3 mg/kg, po. As to conditions: in vivo. In kind it is ADME, organism-based.
Data set [6] deals with Stimulator of interferon genes protein (Homo sapiens) (UniProt Q86WV6). Kind of data set: Inhibition of STING downstream signalling in human THP1-Dual cells assessed as inhibition of cGAMP induced IFN-beta secretion at 0.3 to 3 uM pre-treated for 1 hr followed by stimulated with cGAMP measured after 24 hrs by ELISA. In kind it is cell-based. As to conditions: dose 0.3-3 µM, time 25.0 hrs.

Broadly, the AUC(0-inf) is total exposure, with the tail of the curve extrapolated.

Stimulator of interferon genes protein (Homo sapiens), sequence (Q86WV6 whole entry): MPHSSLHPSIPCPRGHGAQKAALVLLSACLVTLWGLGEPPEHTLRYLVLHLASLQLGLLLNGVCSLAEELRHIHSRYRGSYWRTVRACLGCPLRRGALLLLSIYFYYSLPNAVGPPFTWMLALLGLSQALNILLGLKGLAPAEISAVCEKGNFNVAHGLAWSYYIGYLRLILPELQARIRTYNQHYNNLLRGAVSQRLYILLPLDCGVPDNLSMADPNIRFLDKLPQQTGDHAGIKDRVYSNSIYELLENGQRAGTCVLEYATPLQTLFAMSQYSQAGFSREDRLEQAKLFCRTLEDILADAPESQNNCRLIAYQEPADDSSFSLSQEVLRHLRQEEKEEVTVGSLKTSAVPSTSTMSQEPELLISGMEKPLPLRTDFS
Stimulator of interferon genes protein (Homo sapiens), Q86WV6 [UNDEFINED MUTATION], sequence (Q86WV6 whole entry, looked up, change not shown): as the sequence (Q86WV6 whole entry) above

Regarding `N#CC/C=C/c1ccc2[nH]cc(NC(=O)Nc3ccc4c(c3)OC(F)(F)O4)c2c1`, the inhibition entry in data set [1], in data set [2], in data set [3], in data set [4] and in data set [6] was “Active” in each case. Moreover, in the data set with Mus musculus, the outcome was Active. The AUC(0-inf) in data set [5] worked out at 74.8 ng·h/mL.
